Numbers after ± are expanded uncertainties.

Data set [1] is described as follows: Molar enthalpy of transition or fusion. As to conditions: Crystal; DSC.
The conditions of data set [2]: Crystal; DTA.

For `O=Cc1ccc(Br)cc1` [4-bromobenzaldehyde], in data set [1], the “Molar enthalpy of transition or fusion” value was 5.41 ± 0.124 kcal/mol. For the same molecule, in data set [2], the Normal melting temperature is 61.1 ± 0.4 °C.

These data come from the NIST ThermoML archive (doi:10.1021/je700448v).
